Measurements published in patent publication US4731109A, “Herbicidal 2-haloacetanilides” (Monsanto Company, priority 1982, dated 1988).

Tests used:
[1] = test system: Quackgrass; test: Greenhouse pre-emergence GR15/GR85 selectivity test; assay type: in vivo
Excerpt: (§1) A good grade of top soil is placed in aluminum pans and compacted to a depth of three-eighths to one-half inch from the top of the pan. On the top of the soil is placed a number of seeds or vegetative propagules of various plant species. The soil required to level fill the pans after seeding or adding vegetative propagules is weighed into a pan. The soil and a known amount of the active ingredient applied in a solvent or as a wettable powder suspension are thoroughly mixed, and used to cover the prepared pans. […] As an alternative procedure, the overhead irrigation may be omitted. Observations are made about 2-3 weeks after seeding and treatment.
(§2) A further guide to the effectiveness of a chemical as a selective herbicide is the "selectivity factor" ("SF") for a herbicide in given crops and weeds. The selectivity factor is a measure of the relative degree of crop safety and weed injury and is expressed in terms of the GR15 /GR85 ratio, i.e., the GR15 rate for the crop divided by the GR85 rate for the weed, both rates in kg/ha (lb/A). In the tables below, selectivity factors are shown in parenthesis following the GR85 rate for each weed; the symbol "NS" indicates "non-selective". Marginal or undetermined selectivity is indicated by a dash (--).
(§3) These weeds are commonly associated with such major crops as corn and soybeans. […] The test procedure was the same as described for Tables II and III but modified by the application of an initial overhead irrigation equivalent to 1/4" (0.64 cm) rainfall; subsequent watering was accomplished by subirrigation. "NS" means non-selective within the test limits.
(§4) Unless otherwise noted; greenhouse tests in Table VI and in other tables below involved herbicide treatments by soil incorporation and an initial overhead irrigation followed by subirrigation as described above.

[2] = test system: Yellow Nutsedge; test: as above; assay type: in vivo
Excerpt: as §1, §2, §3, §4

[3] = test system: corn; test: as above; assay type: in vivo
Excerpt: (§5) A good grade of top soil is placed in aluminum pans and compacted to a depth of three-eighths to one-half inch from the top of the pan. On the top of the soil is placed a number of seeds or vegetative propagules of various plant species. The soil required to level fill the pans after seeding or adding vegetative propagules is weighed into a pan. The soil and a known amount of the active ingredient applied in a solvent or as a wettable powder suspension are thoroughly mixed, and used to cover the prepared pans. After treatment, the pans are given an initial overhead irrigation of eater, equivalent to one-fourth inch (0.64 cm) rainfall, then watered by subirrigation as need to give adequate moisture for germination and growth. As an alternative procedure, the overhead irrigation may be omitted. Observations are made about 2-3 weeks after seeding and treatment.
(§6) In the discussion and tables of data below, reference is made to herbicide application rates symbolized as "GR15 " and "GR85 "; these rates are given in kilograms per hectare (kg/ha) which are convertible into pounds per acre (lbs/A) by dividing the kg/ha rate by 1.12.
as §2
In Table IV pre-emergence herbicidal activity data are presented comparing the relative efficacy of the invention compounds and said prior art compounds as selective herbicides against the resistant and troublesome perennial weeds quackgrass and yellow nutsedge in soybeans and corn, respectively. These weeds are commonly associated with such major crops as corn and soybeans. The test data in Table IV were obtained under identical procedural conditions and represent two replicate runs (except for the compound of Example 9 which was present in one comparative test). The test procedure was the same as described for Tables II and III but modified by the application of an initial overhead irrigation equivalent to 1/4" (0.64 cm) rainfall; subsequent watering was accomplished by subirrigation. "NS" means non-selective within the test limits.
(§7) Additionally, pre-emergence herbicidal data from other tests have established that compounds according to this invention also selectively suppress quackgrass, yellow nutsedge and/or other weeds in one or more of the crops cotton, peanuts, bush beans and/or rape. For example, in Table VI are presented data showing the herbicidal selectivity of the compounds of Examples 1 and 2 against quackgrass in rape and snap beans. Unless otherwise noted; greenhouse tests in Table VI and in other tables below involved herbicide treatments by soil incorporation and an initial overhead irrigation followed by subirrigation as described above.

[4] = test system: rape; test: as above; assay type: in vivo; conditions: Table XV
Excerpt: as §5, §6, §2, §7
In another greenhouse test, the compounds of Examples 3-5, 9 and 10 were tested for their herbicidal efficacy against a variety of resistant annual and perennial weeds in rape.

[5] = test system: Texas panicum; test: as above; assay type: in vivo; conditions: Table XVI
Excerpt: as §1, §2, §4

[6] = test system: alexandergrass; test: as above; assay type: in vivo; conditions: Table XV; for selectivity factor (GR15/GR85): in rape
Excerpt: as §1, §2, §4

[7] = test system: fall panicum; test: as above; assay type: in vivo; conditions: Table XVI
Excerpt: as §1, §2, §4

[8] = test system: itchgrass; test: as above; assay type: in vivo; conditions: Table XVI
Excerpt: as §1, §2, §4

[9] = test system: red rice; test: as above; assay type: in vivo; conditions: Table XVI
Excerpt: as §1, §2, §4

[10] = test system: seedling johnsongrass; test: as above; assay type: in vivo; conditions: Table XVI
Excerpt: as §1, §2, §4

[11] = test system: shattercane; test: as above; assay type: in vivo; conditions: Table XVI
Excerpt: as §1, §2, §4

[12] = test system: wild proso millet; test: as above; assay type: in vivo, wild proso millet (panicum milicaeum); conditions: Table XVI
Excerpt: as §1, §2, §4

[13] = test system: Quackgrass; test: Herbicidal effect in a variety of soil types; assay type: in vivo; conditions: Table XVII B; for selectivity factor (GR15/GR85): in soybeans
Excerpt: The herbicide treatments were by soil incorporation with seeds planted 0.375 in (0.95 cm) deep, with 0.25 in (0.64 cm overhead irrigation. Observations were made about three weeks after treatment. Selectivity factors are shown in parenthesis.

[14] = test system: soybeans; test: Herbicidal effect in a variety of soil types; assay type: in vivo; conditions: Table XVII B

CCCOCN(C(=O)CCl)c1c(C)cccc1C(F)(F)F [Example 3, N--(n-propoxymethyl)-2'-trifluoromethyl-6'-methyl-2-chloroacetanilide]
GR85 ([1]; Table IV, Replicate #1): 0.12 Kg/Ha | GR85 ([1]; Table IV, Replicate #2): 0.13 Kg/Ha | selectivity factor (GR15/GR85) ([1]; quackgrass in corn, Table IV, Replicate #1): 6.5 | selectivity factor (GR15/GR85) ([1]; quackgrass in corn, Table IV, Replicate #2): 5.5 | selectivity factor (GR15/GR85) ([1]; quackgrass in soybeans, Table IV, Replicate #1): 9 | selectivity factor (GR15/GR85) ([1]; quackgrass in soybeans, Table IV, Replicate #2): 8.5 | GR85 ([2]; Table IV, Replicate #1): 0.11 Kg/Ha | GR85 ([2]; Table IV, Replicate #2): 0.21 Kg/Ha | selectivity factor (GR15/GR85) ([2]; yellow nutsedge in corn, Table IV, Replicate #1): 7 | selectivity factor (GR15/GR85) ([2]; yellow nutsedge in corn, Table IV, Replicate #2): 3.5 | selectivity factor (GR15/GR85) ([2]; yellow nutsedge in soybeans, Table IV, Replicate #1): 10 | selectivity factor (GR15/GR85) ([2]; yellow nutsedge in soybeans, Table IV, Replicate #2): 5 | GR15 ([3]; Table IV, Replicate #1): 0.78 Kg/Ha | GR15 ([3]; Table IV, Replicate #2): 0.73 Kg/Ha | GR15 Rate [4]: 0.90 Kg/Ha | GR85 Rate [5]: 0.43 Kg/Ha | selectivity factor (GR15/GR85) ([5]; in lima beans): 1.1 | selectivity factor (GR15/GR85) ([5]; in peanuts): > 2.6 | GR85 Rate [6]: 0.14 Kg/Ha | selectivity factor (GR15/GR85) [6]: 6.3 | GR85 Rate [7]: 0.08 Kg/Ha | selectivity factor (GR15/GR85) ([7]; in lima beans): 6 | selectivity factor (GR15/GR85) ([7]; in peanuts): > 14 | GR85 Rate [8]: 0.51 Kg/Ha | selectivity factor (GR15/GR85) ([8]; in lima beans): NS (non-selective) | selectivity factor (GR15/GR85) ([8]; in peanuts): > 2.2 | GR85 Rate [9]: 0.37 Kg/Ha | selectivity factor (GR15/GR85) ([9]; in lima beans): 1.3 | selectivity factor (GR15/GR85) ([9]; in peanuts): > 3 | GR85 Rate [10]: 0.23 Kg/Ha | selectivity factor (GR15/GR85) ([10]; in lima beans): 2.1 | selectivity factor (GR15/GR85) ([10]; in peanuts): > 4.9 | GR85 Rate [11]: 0.11 Kg/Ha | selectivity factor (GR15/GR85) ([11]; in lima beans): 4.5 | selectivity factor (GR15/GR85) ([11]; in peanuts): > 10.2 | GR85 Rate [12]: 0.27 Kg/Ha | selectivity factor (GR15/GR85) ([12]; in lima beans): 1.8 | selectivity factor (GR15/GR85) ([12]; in peanuts): > 4.2 | GR85 ([13]; Florida muck): 1.1 Kg/Ha | GR85 ([13]; Florida sand): 0.72 Kg/Ha | GR85 ([13]; Wabash silty clay): 0.22 Kg/Ha | selectivity factor (GR15/GR85) ([13]; Florida muck): > 2 | selectivity factor (GR15/GR85) ([13]; Florida sand): 2.5 | selectivity factor (GR15/GR85) ([13]; Wabash silty clay): 9 | GR15 ([14]; Florida muck): > 2.2 Kg/Ha | GR15 ([14]; Florida sand): 2.0 Kg/Ha | GR15 ([14]; Wabash silty clay): 2.0 Kg/Ha

Cc1cccc(C(F)(F)F)c1N(COCC(C)C)C(=O)CCl [Example 5, N--(isobutoxymethyl)-2'-trifluoromethyl-6'-methyl-2-chloroacetanilide]
GR15 Rate [4]: > 1.12 Kg/Ha | GR85 Rate [5]: 0.53 Kg/Ha | selectivity factor (GR15/GR85) ([5]; in lima beans): > 2.1 | selectivity factor (GR15/GR85) ([5]; in peanuts): 1.1 | GR85 Rate [6]: 0.7 Kg/Ha | selectivity factor (GR15/GR85) [6]: > 1.6 | GR85 Rate [7]: 0.28 Kg/Ha | selectivity factor (GR15/GR85) ([7]; in lima beans): > 4 | selectivity factor (GR15/GR85) ([7]; in peanuts): 2 | GR85 Rate [8]: 0.56 Kg/Ha | selectivity factor (GR15/GR85) ([8]; in lima beans): > 2 | selectivity factor (GR15/GR85) ([8]; in peanuts): 1 | GR85 Rate [9]: 0.53 Kg/Ha | selectivity factor (GR15/GR85) ([9]; in lima beans): > 2.1 | selectivity factor (GR15/GR85) ([9]; in peanuts): 1.1 | GR85 Rate [10]: 0.37 Kg/Ha | selectivity factor (GR15/GR85) ([10]; in lima beans): > 3 | selectivity factor (GR15/GR85) ([10]; in peanuts): 1.5 | GR85 Rate [11]: 0.56 Kg/Ha | selectivity factor (GR15/GR85) ([11]; in lima beans): > 2 | selectivity factor (GR15/GR85) ([11]; in peanuts): 1 | GR85 Rate [12]: 0.56 Kg/Ha | selectivity factor (GR15/GR85) ([12]; in lima beans): > 2 | selectivity factor (GR15/GR85) ([12]; in peanuts): 1 | GR85 ([13]; Drummer silty clay): 1.1 Kg/Ha | GR85 ([13]; Florida muck): 3.0 Kg/Ha | GR85 ([13]; Florida sand): 1.1 Kg/Ha | GR85 ([13]; Ray silt loam): > 2.2 Kg/Ha | GR85 ([13]; Sarpy silty clay): 1.6 Kg/Ha | GR85 ([13]; Wabash silty clay): 1.6 Kg/Ha | selectivity factor (GR15/GR85) ([13]; Drummer silty clay): 2 | selectivity factor (GR15/GR85) ([13]; Florida sand): 3 | selectivity factor (GR15/GR85) ([13]; Ray silt loam): NS (non-selective) | selectivity factor (GR15/GR85) ([13]; Sarpy silty clay): 2 | selectivity factor (GR15/GR85) ([13]; Wabash silty clay): 1.5 | GR15 ([14]; Drummer silty clay): 2.2 Kg/Ha | GR15 ([14]; Florida muck): > 2.0 Kg/Ha | GR15 ([14]; Florida sand): 3.0 Kg/Ha | GR15 ([14]; Ray silt loam): 2.0 Kg/Ha | GR15 ([14]; Sarpy silty clay): 3.0 Kg/Ha | GR15 ([14]; Wabash silty clay): 2.2 Kg/Ha

CCCOCN(C(=O)CCl)c1c(CC)cccc1C(F)(F)F [Example 10, N--(n-propoxymethyl)-2'-trifluoromethyl-6'-ethyl-2-chloroacetanilide]
GR85 ([1]; Table XIII): 0.45 Kg/Ha | selectivity against quackgrass in wheat ([1]; in wheat): non-selective | selectivity factor (GR15/GR85) ([1]; quackgrass in corn, Table XIII): 5.6 | selectivity factor (GR15/GR85) ([1]; quackgrass in soybeans, Table XIII): 3.3 | GR85 ([2]; Table XII): 0.38 Kg/Ha | selectivity with respect to yellow nutsedge in rice ([2]; in rice): non-selective | selectivity factor (GR15/GR85) ([2]; yellow nutsedge in corn, Table XII): 4.5 | selectivity factor (GR15/GR85) ([2]; yellow nutsedge in cotton, Table XII): 7.4 | selectivity factor (GR15/GR85) ([2]; yellow nutsedge in soybeans, Table XII): 5.8 | GR15 ([3]; Table XII): 1.7 Kg/Ha | GR15 ([3]; Table XIII): 2.5 Kg/Ha | GR15 Rate [4]: > 1.12 Kg/Ha | GR85 Rate [5]: 1.1 Kg/Ha | selectivity factor (GR15/GR85) ([5]; in lima beans): > 1 | selectivity factor (GR15/GR85) ([5]; in peanuts): NS (non-selective) | GR85 Rate [6]: 0.36 Kg/Ha | selectivity factor (GR15/GR85) [6]: > 3.1 | GR85 Rate [7]: 0.22 Kg/Ha | selectivity factor (GR15/GR85) ([7]; in lima beans): > 5.1 | selectivity factor (GR15/GR85) ([7]; in peanuts): 4.5 | GR85 Rate [8]: 0.90 Kg/Ha | selectivity factor (GR15/GR85) ([8]; in lima beans): > 1.2 | selectivity factor (GR15/GR85) ([8]; in peanuts): 1.1 | GR85 Rate [9]: 0.98 Kg/Ha | selectivity factor (GR15/GR85) ([9]; in lima beans): > 1.1 | selectivity factor (GR15/GR85) ([9]; in peanuts): 1 | GR85 Rate [10]: 0.36 Kg/Ha | selectivity factor (GR15/GR85) ([10]; in lima beans): > 3.1 | selectivity factor (GR15/GR85) ([10]; in peanuts): 2.7 | GR85 Rate [11]: 0.56 Kg/Ha | selectivity factor (GR15/GR85) ([11]; in lima beans): > 2 | selectivity factor (GR15/GR85) ([11]; in peanuts): 1.8 | GR85 Rate [12]: 0.80 Kg/Ha | selectivity factor (GR15/GR85) ([12]; in lima beans): > 1.4 | selectivity factor (GR15/GR85) ([12]; in peanuts): 1.2
